Measurements published in paper PMC7719179, “Small molecule inhibition of Dynamin-dependent endocytosis targets multiple niche signals and impairs leukemia stem cells” (Nature Communications, 2020).
“And” between values parts separate entries of the source, which are not always exact repeats. Equal values may be shown once.

Tested on: DN3a thymocytes
Assay: Relative viability and LC50 on DN3a thymocytes of WT, Lmo2^Tg, Lmo2^Tg;STAT5-CA^Tg and Lmo2^Tg;N1-ICD^Tg mice, 48 h
Conditions: Lmo2Tg;STAT5-CATg
Description: Pre-leukemic and leukemic thymocytes were purified by flow cytometry and co-cultured on GFP-positive OP9 and OP9-DL1 stromal cell lines, as described previously. Thymocytes were co-cultured in reconstituted alpha-MEM medium (#12318, Gibco, Grand Island NY, USA) supplemented with 20% FCS (#12318), HEPES 10 mM (#15630-080), sodium pyruvate 1 mM (#11360-070), β-mercaptoethanol 55 μM (#21985-023), Glutamax 2 mM (#15750-060), 1% Penicillin/Streptomycin (#15140-122), 5 ng/mL rmFLT-3 ligand (#250-31 L, Pepro Tech), 5 ng/mL rmIL-7 (#217-17, Pepro Tech) and 25 ng/mL rmSCF (#250-03, Pepro Tech). After 48 h of co-culture, thymocytes were counted and analysed by FACS. […]
viability of wild-type (WT), Lmo2 Tg, Lmo2Tg;STAT5-CA Tg and Lmo2Tg;N1-ICD Tg DN3a thymocytes […]
normalized to cells treated with vehicle (%DMSO). Mean ± SEM of n=4 biological replicates. b, […]
thymocytes from 6-week old wild-type (WT), Lmo2 Tg, Lmo2Tg;STAT5-CATg and Lmo2Tg ;N1-ICD Tg mice. Mean ± SD of n=4 biological replicates are shown. 2-way ANOVA with Tukey’s correction test; […]
(1 picture or pasted object on this page, not shown here)
*P<0.05, *** P<0.001 compared to WT; #P<0.05, ##P<0.01, ###P<0.001 compared to L mo2Tg. c, Levels of pStat5 (left) after stimulation with IL-7 , as well as Hes1 expression (right) after co-culture on OP9- […]
(0.2 µM), Ruxolitinib (0.2 µM) and DAPT (0.1 µM). Unstimulated cells were used as negative controls (dashed line). Student’s t -test, ** P<0.01, *** P<0.001 compared to unstimulated cells. MFI ± SEM, 1-way ANOVA with Tukey’s correction test; **P<0.01, *** P<0.001 compared to vehicle. d, Clonogenic assay of normal murine hematopoietic stem and progenitor cells (HSPCs) cultured in the presence […]
± SD, Student’s t -test ( n=4) **P<0.01 compared to vehicle. e, Relative viability of wild-type (WT), […]
2 (0.2 µM), Ruxolitinib (0.2 µM) and DAPT (0.1 µM) for 48 hours. Viability was normalized to cells treated with vehicle (%DMSO, which was reported as 100). Mean ± SEM, 2-way ANOVA with Tukey’s correction test, **P<0.01, *** P<0.001 compared to vehicle.

Structure (SMILES): CCCCCCCCNC(=O)/C(C#N)=C/c1cn(CCCN(C)C)c2ccccc12 [Dynole 34]
- Survival (% DMSO): 50.05 % DMSO and 55.36 % DMSO and 37.5 % DMSO and 40.03 % DMSO
